Experiments:
[1] = test system: Male obese Zucker diabetic fatty (ZDF fa/fa) rats; experiment: Treatment of prediabetic ZDF rats by IP injection (plasma glucose, serum triglycerides); format: in vivo, rat; details: IP injection 10 mg/kg once daily for three weeks, PEG 300
Method: Male obese Zucker diabetic fatty (ZDF fa/fa) rats were used to test the in vivo activity of compound 1. This animal model develops hyperglycemia and insulin resistance.
In this example, six-week-old male prediabetic ZDF rats (Charles River) are provided rat chow and water ad libidum. The obese rats are divided into a control and a treated groups (n=6 per subgroup).
The compound 1 is dissolved in PEG 300 and administrated by IP injection at a dose of 10 mg/kg once daily for a period of three weeks.
Glucose plasma level can be measured by the commercially available kit using the glucose oxydase method (Sigma Chemical Co.).
(§1) Assay of serum triglycerides may be performed enzymatically using a commercially available kit. In summary, the triglycerides are treated with a lipase in order to generate glycerol and fatty acids. In the presence of ATP, the glycerol is transformed by […] into glycerol-3-phosphate. The glycerol-3-phosphate is subsequently transformed into dihydroxyacetone in generating oxygenated water (H202) which may be detected by formation of quinoneimine in the presence of parachlorophenol, amino-4-antipyrin and peroxydase. The intensity of the quinoneimine coloration is subsequently measured at 505 nm. This coloration is proportional to the quantity of triglycerides present in the sample.

[2] = test system: ZDF rats; experiment: Treatment of prediabetic ZDF rats by oral administration (plasma triglycerides); format: in vivo, rat
Method: as §1
Following the same experiments as in example 2.2, ZDF rats were used to evaluate the effect of the compound on the glycaemia and the plasma level of triglycerides using the experimental protocol described in example 2.2.
The compound was dissolved in PEG 300 and orally administrated to a series of 8 rats for 2 weeks.

[3] = test system: TA100, TA98, TA 102, TA 1537 and TA 1535; experiment: AMES test, overall conclusion over all strains; format: cell-based, Salmonella typhimuriu; details: absence and presence of S-9
From the text: Gene mutation can be evaluated in vitro, using amino-acid requiring strains of Salmonella typhimuriu. Different protocols for this test have been published (Ames B. N. et al Mutation Res. 1975, 31, 347-364, and Gatehouse D. et al Mutation Res. 1994, 312, 217-233). The principle of this bacterial reverse mutation test is that it detects mutations which revert mutations present in the test strains and restore the functional capability of the bacteria to synthesise an essential amino acid. The revertant bacteria are detected by their ability to grow in the absence of the amino acid required by the parent test strain.
In the present example, the guidelines OECD TG 471 (i.e. AMES Test) was used to detect gene mutation at different doses in the TA100, TA98, TA 102, TA 1537 and TA 1535.
Treatments covering a broad range of concentrations, separated by narrow intervals, were performed both in the absence and presence of metabolic activation (S-9) from Aroclor 1254 induced animals. The compound was formulated in anhydrous analytical grade dimethylsulphoxide (DMSO) and the highest concentration used in was determined following a preliminary cytotoxicity Range-Finder Experiment.

## COc1cc(O)c(/C=N/NC(=O)c2ccc3nccn3c2)c(OC)c1 [Compound 1, [1-(2-hydroxy-4,6-dimethoxy-phenyl)-methylidene]-imidazo[1,2-a]pyridine-6-carbohydrazide]
[1]
  circulating triglycerides: significantly reduce
  plasma level of glucose: significantly reduces
[2]; administered orally, 2 weeks
  circulating triglycerides: significantly reduce
[2]; orally administrated for 2 weeks, versus untreated rats
  Reduction of plasma triglycerides: 37.4%
[2]; orally administrated in PEG 300 for 2 weeks, ZDF rats (n = 8)
  Triglycerides, plasma level: 1.02 ± 0.1 mM
[3]
  mutagenic activity in AMES test: does not exhibit mutagenic activity

Reference: patent US20120277436A1, “PHENYLHYDRAZONE DERIVATIVES AND THEIR USE AS PHARMACEUTICALS” (priority 2009, published 2012)
